Test results reported in US20250144067A1, “PERSONALIZED STARVATION THERAPY FOR CANCER” (Faeth Therapeutics, Inc., priority 2021, published 2025).
Counter-ions that a name gives are not always drawn. Like-named read-outs stand apart in the source and are kept apart here.

Key:
[1] = test system: NCI-H292 lung cancer cells; experiment: FDA drug screening, complete media vs cholesterol-free media without statin (TABLE 1); format: cell-based, human
[2] = test system: NCI-H292 lung cancer cells; experiment: FDA drug screening, complete media vs cholesterol-free media with simvastatin (TABLE 2); format: cell-based, human
[3] = Complete minus Cholesterol-free, greater than 0 enhanced anti-cancer activity, about 0 neutral, below 0 antagonist
[4] = NCI-H292 cells, FDA drug library screen, cholesterol-free media without statin
[5] = NCI-H292 cells, FDA drug library screen, complete media
[6] = NCI-H292 cells, cholesterol-free media with simvastatin 0.04 μM, FDA drug library screen (TABLE 2)
[7] = NCI-H292 cells, complete media, FDA drug library screen (TABLE 2)
[8] = complete media minus cholesterol-free media + simvastatin (0.04 μM), >0 enhanced anti-cancer activity, about 0 neutral, <0 antagonist
[9] = NCI-H292 cells, cholesterol-free media without statin, FDA drug library screen
[10] = NCI-H292 cells, complete media, FDA drug library screen
[11] = complete vs cholesterol-free media, >0 enhanced anti-cancer activity, about 0 neutral, <0 antagonist
[12] = NCI-H292 cells, FDA drug library screen, cholesterol-free media with simvastatin 0.04 μM
[13] = complete media minus cholesterol-free media + simvastatin, >0 enhanced anti-cancer activity, about 0 neutral, <0 antagonist
[14] = Complete minus Cholesterol-free, >0 enhanced anti-cancer activity, about 0 neutral, <0 antagonist
[15] = NCI-H292 cells, cholesterol-free media without statin
[16] = NCI-H292 cells, drug in cholesterol-free media with simvastatin 0.04 μM
[17] = NCI-H292 cells, drug in complete media
[18] = complete media vs cholesterol-free media + simvastatin (0.04 μM), >0 enhanced anti-cancer activity, about 0 neutral, <0 antagonist
[19] = complete vs cholesterol-free media, […]
[20] = complete media vs cholesterol-free media + simvastatin (0.04 μM), […]
[21] = NCI-H292 cells, cholesterol-free media with simvastatin 0.04 μM, […]
[22] = NCI-H292 cells, complete media, […]
[23] = complete media minus cholesterol-free media + simvastatin, […]
[24] = complete vs cholesterol-free media, greater than 0 enhanced anti-cancer activity, about 0 neutral, below 0 antagonists
[25] = NCI-H292 cells, FDA library drug in cholesterol-free media with simvastatin 0.04 μM
[26] = NCI-H292 cells, FDA library drug in complete media
[27] = Complete minus Cholesterol-free, […]
[28] = NCI-H292 cells, cholesterol-free media with simvastatin 0.04 μM, cell growth value in FDA drug screen
[29] = NCI-H292 cells, complete media, cell growth value in FDA drug screen
[30] = NCI-H292 cells in cholesterol-free media without statin
[31] = NCI-H292 cells in complete media
[32] = Complete minus Cholesterol-free, greater than 0 enhanced anti-cancer activity, about 0 neutral, below 0 antagonists

NCCCNCCSP(=O)(O)O [Amifostine]
Difference [1, 3]: −0.17
Cholesterol-free [1, 4]: 1.387
Complete [1, 5]: 1.213
Cholesterol-free media + simvastatin (0.04 μM) [2, 6]: 0.9829
Complete Media [2, 7]: 0.9429
Difference [2, 8]: −0.04

Clc1ccc(CCCOCCCN2CCCCC2)cc1 [Pitolisant (hydrochloride)]
Cholesterol-free [1, 9]: 0.9791
Complete [1, 10]: 1.232
Difference [1, 11]: 0.25
Cholesterol-free media + simvastatin (0.04 μM) [2, 12]: 0.442
Complete Media [2, 5]: 1.031
Difference [2, 13]: 0.59

O=C1OC(c2ccc(O)cc2)(c2ccc(O)cc2)c2ccccc21 [Phenolphthalein]
Difference [1, 14]: −0.30
Cholesterol-free [1, 15]: 1.17
Complete ([1]; NCI-H292 cells, complete media): 0.8721
Cholesterol-free media + simvastatin (0.04 μM) [2, 16]: 1.026
Complete Media [2, 17]: 0.7863
Difference [2, 18]: −0.24

CC[C@H](C)[C@@H]1NC(=O)[C@H](Cc2ccc(O)cc2)NC(=O)[C@@H](N)CSSC[C@@H](C(=O)N2CCC[C@H]2C(=O)N[C@@H](CC(C)C)C(=O)NCC(N)=O)NC(=O)[C@H](CC(N)=O)NC(=O)[C@H](CCC(N)=O)NC1=O [Oxytocin]
Cholesterol-free [1, 15]: 1.585
Complete ([1]; NCI-H292 cells, complete media): 1.211
Difference [1, 19]: −0.37
Cholesterol-free media + simvastatin (0.04 μM) [2, 12]: 1.057
Complete Media [2, 5]: 0.9051
Difference [2, 20]: −0.15

Cl.Cl.NCCc1c[nH]cn1 [Histamine (dihydrochloride)]
Cholesterol-free [1]: 1.708
Complete [1]: 1.081
Difference [1]: −0.63
Cholesterol-free media + simvastatin (0.04 μM) [2]: 0.9209
Complete Media [2]: 0.9238
Difference [2]: 0.00

(−)-Sparteine (sulfate pentahydrate)
Cholesterol-free [1, 15]: 1.28
Complete ([1]; NCI-H292 cells, complete media): 0.8579
Difference [1, 19]: −0.42
Cholesterol-free media + simvastatin (0.04 μM) [2, 21]: 0.83
Complete Media [2, 22]: 0.9345
Difference [2, 23]: 0.10

Trelagliptin (succinate)
Cholesterol-free [1, 15]: 1.469
Complete ([1]; NCI-H292 cells, complete media): 1.135
Difference [1, 24]: −0.33
Cholesterol-free media + simvastatin (0.04 μM) [2, 12]: 1.757
Complete Media [2, 5]: 1.617
Difference [2, 18]: −0.14

CO[C@]12C[C@@H](COC(=O)c3cncc(Br)c3)CN(C)[C@@H]1Cc1cn(C)c3cccc2c13 [Nicergoline]
Cholesterol-free [1, 9]: 0.9355
Complete [1, 10]: 1.445
Difference [1, 11]: 0.51
Cholesterol-free media + simvastatin (0.04 μM) [2, 25]: 1.053
Complete Media [2, 26]: 0.4708
Difference [2, 18]: −0.58

CN(C)CC/C=C1/c2ccccc2Sc2ccc(Cl)cc21 [Chlorprothixene (hydrochloride)]
Cholesterol-free [1, 15]: 1.492
Complete ([1]; NCI-H292 cells, complete media): 1.027
Difference [1, 24]: −0.46
Cholesterol-free media + simvastatin (0.04 μM) [2, 12]: 0.8374
Complete Media [2, 5]: 1.056
Difference [2, 13]: 0.22

Dihydroergocristine (mesylate)
Difference [1, 27]: −0.17
Cholesterol-free media + simvastatin (0.04 μM) [2, 12]: 1.12
Complete Media [2, 5]: 1.011
Difference [2, 20]: −0.11

CN(C)c1ccc2nc3ccc(=[N+](C)C)cc-3sc2c1 [Methylene blue (trihydrate)]
Difference [1, 3]: −0.18
Cholesterol-free [1, 4]: 0.4339
Complete [1, 5]: 0.2574
Cholesterol-free media + simvastatin (0.04 μM) [2, 28]: 0.3366
Complete Media [2, 29]: 0.39
Difference [2, 13]: 0.05

CCCCN(CCCC)C(=O)CN1C[C@H](c2ccc3c(c2)OCO3)[C@@H](C(=O)O)[C@@H]1c1ccc(OC)cc1 [Atrasentan (hydrochloride)]
Difference [1, 3]: −0.17
Cholesterol-free [1, 4]: 1.198
Complete [1, 5]: 1.025
Cholesterol-free media + simvastatin (0.04 μM) [2, 16]: 1.092
Complete Media [2, 17]: 0.8532
Difference [2, 18]: −0.24

Chondroitin (sulfate)
Difference [1, 27]: −0.48
Cholesterol-free [1, 30]: 1.247
Complete [1, 31]: 0.7715
Cholesterol-free media + simvastatin (0.04 μM) [2, 21]: 1.097
Complete Media [2, 22]: 1.158
Difference [2, 23]: 0.06

CNC[C@H](O)c1cccc(O)c1 [Phenylephrine]
Cholesterol-free [1, 15]: 1.197
Complete ([1]; NCI-H292 cells, complete media): 0.817
Difference [1, 24]: −0.38
Cholesterol-free media + simvastatin (0.04 μM) [2, 12]: 1.256
Complete Media [2, 5]: 1.518
Difference [2, 13]: 0.26

O=C1[C@H]2CCCC[C@H]2C(=O)N1CCCCN1CCN(c2nsc3ccccc23)CC1 [Perospirone]
Cholesterol-free [1, 15]: 1.046
Complete ([1]; NCI-H292 cells, complete media): 0.7154
Difference [1, 24]: −0.33
Cholesterol-free media + simvastatin (0.04 μM) [2, 6]: 0.9946
Complete Media [2, 7]: 0.9329
Difference [2, 8]: −0.06

COc1cc([C@@H]2c3cc4c(cc3[C@@H](O[C@@H]3O[C@@H]5CO[C@@H](C)O[C@H]5[C@H](O)[C@H]3O)[C@H]3COC(=O)[C@H]23)OCO4)cc(OC)c1O [Etoposide]
Difference [1, 14]: −0.29
Cholesterol-free [1, 15]: 0.7069
Complete ([1]; NCI-H292 cells, complete media): 0.4154
Cholesterol-free media + simvastatin (0.04 μM) [2, 16]: 0.718
Complete Media [2, 17]: 0.5014
Difference [2, 18]: −0.22

Oc1c(Cl)cc(Cl)cc1Sc1cc(Cl)cc(Cl)c1O [Bithionol]
Difference [1, 3]: −0.09
Cholesterol-free [1, 4]: 0.9314
Complete [1, 5]: 0.8442
Cholesterol-free media + simvastatin (0.04 μM) [2, 25]: 2.228
Complete Media [2, 26]: 1.353
Difference [2, 18]: −0.88

O=C1[C@H](CC[C@H](O)c2ccc(F)cc2)[C@@H](c2ccc(O)cc2)N1c1ccc(F)cc1 [Ezetimibe]
Difference [1, 32]: −0.66
Cholesterol-free [1, 30]: 1.871
Complete [1, 31]: 1.209
Cholesterol-free media + simvastatin (0.04 μM) [2, 28]: 1.247
Complete Media [2, 29]: 1.268
Difference [2, 13]: 0.02

CCC(=O)O[C@@H]1CC(=O)O[C@H](C)C/C=C/C=C/[C@H](O)[C@H](C)C[C@H](CC=O)[C@H](O[C@@H]2O[C@H](C)[C@@H](O[C@H]3C[C@@](C)(O)[C@@H](OC(=O)CC)[C@H](C)O3)[C@H](N(C)C)[C@H]2O)[C@H]1OC [Midecamycin]
Cholesterol-free [1, 9]: 1.021
Complete [1, 10]: 1.536
Difference [1, 11]: 0.52
Cholesterol-free media + simvastatin (0.04 μM) [2, 25]: 1.255
Complete Media [2, 26]: 0.9149
Difference [2, 18]: −0.34

Nc1nc2ccc(OC(F)(F)F)cc2s1 [Riluzole]
Difference [1, 14]: 0.02
Cholesterol-free [1, 9]: 1.015
Complete [1, 10]: 1.033
Cholesterol-free media + simvastatin (0.04 μM) [2, 12]: 0.9966
Complete Media [2, 5]: 1.259
Difference [2, 13]: 0.26

Cc1ccccc1C(=O)Nc1ccc(C(=O)N2CCCC(N(C)C)c3ccccc32)cc1 (stereo not shown) [Mozavaptan]
Difference [1, 14]: −0.20
Cholesterol-free [1, 15]: 0.8282
Complete ([1]; NCI-H292 cells, complete media): 0.6332
Cholesterol-free media + simvastatin (0.04 μM) [2, 25]: 1.121
Complete Media [2, 26]: 0.8375
Difference [2, 18]: −0.28

NC(=O)c1ccccc1O [Salicylamide]
Difference [1, 32]: −0.58
Cholesterol-free [1, 30]: 1.486
Complete [1, 31]: 0.907
Cholesterol-free media + simvastatin (0.04 μM) [2, 6]: 1.206
Complete Media [2, 7]: 1.141
Difference [2, 8]: −0.07
